85 compounds from PubChem BioAssay AID2305 (GlaxoSmithKline (GSK), 2010) can be followed below.

For orientation: IC50 means the midpoint of a concentration-inhibition curve. Low readings indicate greater potency, high ones weaker potency.

The assay has as its system P. falciparum 3D7 growth, pLDH absorbance. The assay can be described thus: P. falciparum 3D7 growth inhibition, dose response, strain 3D7 (AID 2305).

As for `Oc1ccc2ccccc2c1C=NNc1nc(Nc2ccccc2)nc(N2CCOCC2)n1`, the IC50 was determined as 890 nM.

The compound `O=C(NC1CCC(N2CCC(Cc3ccc(F)cc3)CC2)CC1)c1cc2ccccc2[nH]1` (stereo not given) yielded an IC50 of 870 nM.

`COc1ccccc1CCNc1nc(C)cc(NCCC(=O)Nc2ccccc2)n1` showed an IC50 of 810 nM.

Take `CCNc1cc(C(=O)N[C@@H](Cc2ccccc2)[C@H](O)CNC2CCC(C)(C)CC2)cc(N2CCCCS2(=O)=O)c1`: the IC50 amounted to 650 nM.

Compound `COC(=O)c1cc(C(O)CNC(C)CCc2cccc(F)c2)ccc1O` (stereo not given) yielded an IC50 of 1180 nM.

`O=C(Nc1cccc(N2CCC(NCCCc3ccncc3)CC2)c1)c1cccc(C(F)(F)F)c1` showed an IC50 of 850 nM.

Compound `O=C(NCCCN(Cc1ccc(F)cc1)c1ccccn1)C(c1cc2ccccc2o1)N1CCN(C(c2ccccc2)c2ccccc2)CC1` (stereo not given) came in with an IC50 of 840 nM.

The compound `CC(C)(C)C1CC(=O)C[C@@H]2C(=O)N(C3CCCCC3)C(=O)[C@H]12` (stereo not given in full) showed an IC50 of 420 nM.

Take `O=C(Nc1ccc(CCNCc2ccccc2)cc1)Nc1ccc(OC(F)(F)F)cc1`: the 50% inhibitory concentration (IC50) came out at 580 nM.

As for `O=C(Nc1cccc(-c2cccc(-c3nc4ccccc4[nH]3)c2)c1)c1csnn1`, the IC50 was found to be 920 nM.

In turn, `OCc1ccc(-c2cncc(Nc3cccc(Cl)c3)c2)cc1` returned an IC50 of 70 nM.

`CNC(=O)C1Cc2c([nH]c3ccc(Cl)cc23)C2(CCN(CCc3ccccc3)CC2)N1` (stereo not given): the IC50 stood at 890 nM.

Regarding `CCc1ccc(CN(CCCOc2cccc(CC(=O)NCc3cnc[nH]3)c2)Cc2ccc(-n3ccnc3)cc2)cc1`, the IC50 was found to be 980 nM.

As to `COc1cccc(-n2ncc3c(N/N=C/c4ccc(CN(C)CCN(C)C)cc4)ncnc32)c1`, the IC50 was found to be 890 nM.

Turning to `CC(=O)N(C)C1CCN(Cc2ccc(-c3ccc(-c4nc5ccc(F)cc5[nH]4)s3)cc2)C1` (stereo not given), the IC50 stood at 970 nM.

For `COc1ccc(NC(=O)c2csc(-c3cc(NC(=O)c4ccnc(N5CCCC5)c4)ccc3C)c2)cc1N1CCN(C)CC1`, the IC50 is 660 nM.

Compound `CC(C)C(C(=O)Nc1ccc2c(c1)OCO2)c1ccc(Cl)cc1` (stereo not given) had an IC50 of 720 nM.

On to `CC(C)CNCc1ccc(-c2ccc(CN(C(=O)Nc3ccccc3)C3CCN(Cc4ccccc4)CC3)cc2)cc1`, for which the IC50 came to 680 nM.

In turn, `COc1ccc2nccc([C@@H](O)CN3CCC(NCc4ccc5c(c4)OCCO5)CC3)c2c1` yielded an IC50 of 290 nM.

Consider `NC1CCN(Cc2cccc(-c3ccc(-c4nc5ccccc5[nH]4)s3)c2)C1` (stereo not given), for which the IC50 turned out to be 730 nM.

Compound `CCCCNc1nccc2ccc(-c3ccncc3)cc12` yielded an IC50 of 770 nM.

In turn, `Cc1cc(N(C)C)nc(Nc2ccc(NC(=O)C(C)Oc3ccccc3)cc2)n1` (stereo not given) came in with an IC50 of 950 nM.

Compound `COc1ccc(Nc2ncc3c(-c4ccc(NC(=O)c5cccc(C(F)(F)F)c5)cc4)c[nH]c3n2)cc1OC` gave an IC50 of 1030 nM.

The compound `CC(C)c1ccc(CN2CCCCC(NC(=O)c3cc(-c4ccccc4F)cs3)C2)cc1` (stereo not given) showed an IC50 of 670 nM.

The compound `COc1cccc2cc(C(=O)N[C@@H](CC(C)C)C(=O)Nc3cc(F)ccc3Br)oc12` registered an IC50 of 970 nM.

`COc1cc2nc(N(C)Cc3cccc(I)c3)nc(N)c2cc1OC` gave an IC50 of 860 nM.

In turn, `Oc1ccc(CCNc2nc(NCc3ccccc3-c3ccccc3)nc(N3CCCNCC3)n2)cc1` displayed a half-inhibitory concentration (IC50) of 880 nM.

`COc1ccc(CN2CCCN(Cc3cccc(NC(=O)c4ccc5ccccc5c4)c3)CC2)cc1` showed an IC50 of 1000 nM.

As for `FC(F)(F)c1cnc(Sc2nnc(-c3ccco3)o2)c(Cl)c1`, the IC50 worked out at 790 nM.

The compound `Oc1c(CN2CCCC(C(F)(F)F)C2)cc(Cl)c2ccccc12` (stereo not given) registered an IC50 of 1570 nM.

Consider `COc1ccc(Nc2nc(NN=Cc3ccc(-c4ccc([N+](=O)[O-])cc4)o3)nc(Nc3ccccc3)n2)cc1`, for which the IC50 was determined as 760 nM.

Regarding `COc1cc(C)ccc1S(=O)(=O)N1CCCCC(c2ccc(C(F)(F)F)cc2)=N1`, the IC50 was found to be 770 nM.

The compound `O=C(NC1CCC(CN2CCC(c3c[nH]c4ccccc34)CC2)CC1)c1cc2ccccc2s1` (stereo not given) registered an IC50 of 730 nM.

With `COc1ccc(CN(C)CCOc2ccc(NC(=O)c3cccc4c(=O)cc(-c5ccccc5)[nH]c34)cc2)cc1OC`, the IC50 was 920 nM.

Take `COc1ccc2c(NN=Cc3ccccc3)ccnc2c1`: the IC50 was 130 nM.

As for `COc1ccc2c(c1)nc(CN=C(N)N)n2Cc1ccc(Cl)cc1`, the IC50 amounted to 360 nM.

`O=C(Nc1cccc(CN2CCN(C(=O)c3cccc(F)c3)CC2)c1)c1cccs1` showed an IC50 of 370 nM.

Regarding `Cc1ccc(C)c(Cn2c(N3CCC(C(=O)NCc4cccs4)CC3)nc3ccccc32)c1`, the IC50 was 940 nM.

`Cc1cc(Cl)c(S(=O)(=O)N(C)c2ccccc2)cc1OCC(=O)NC1CCCCC1` registered an IC50 of 300 nM.

The compound `CCOC(=O)c1cn(CC)c2cc(F)c(OC3C[C@@H]4CC[C@@]3(C)C4(C)C)cc2c1=O` (stereo not given in full) had an IC50 of 930 nM.

`COc1ccccc1CNc1ncc(-c2ccsc2)c(-c2nccs2)n1` returned a 50% inhibitory concentration (IC50) of 330 nM.

`COc1cc(OC)c(OC)cc1CN1CCC2(CC1)CN(Cc1ccc(Cl)c(Cl)c1)C(=O)O2` gave an IC50 of 810 nM.

As to `Cc1c(S(=O)(=O)Nc2ccc3nccc(N4CCN[C@H](C)C4)c3c2)sc2ccc(Cl)cc12`, the IC50 worked out at 840 nM.

Take `CC(ON1C(N)=NC(N)=NC1(C)C)c1ccccc1` (stereo not given): the IC50 amounted to 10 nM.

In the case of `O=C(Nc1ccc2c(c1)CNCC2)c1ccc(-c2ccc(Cl)cc2)cc1`, the IC50 is 660 nM.

`COc1ccc(-c2cccc(NC(=O)c3ccc(Cl)cc3)c2)cc1CN1CCCC1` yielded an IC50 of 780 nM.

For the compound `CCNCc1cccc(-c2ccc3ccnc(N)c3c2)c1`, the IC50 was found to be 50 nM.

`Fc1ccc(Nc2ccnc3cc(-c4cccc(CN5CCCCC5)c4)ccc23)c(Cl)c1` came in with an IC50 of 30 nM.

In turn, `O=S(=O)(NCCN1CCCC1)c1ccc(-c2ccc(CNC3Cc4ccccc4C3)cc2)s1` registered an IC50 of 590 nM.

`CC1(C)N=C(N)N=C(N)N1OCCCO`: the IC50 amounted to 220 nM.

`CCOC(=O)CNC(=O)N(CCN(Cc1ccccc1)C(=O)NCC(=O)OCC)Cc1ccccc1` gave an IC50 of 770 nM.

In turn, `Cc1cc(C(F)(F)F)n2nc(C(=O)N(Cc3cncn3Cc3ccccc3F)CC3CC3)cc2n1` came in with an IC50 of 960 nM.

For `O=C(Nc1cccc(-c2nn3ncccc3c2-c2ccnc(Nc3ccccc3)n2)c1)c1c(F)cccc1F`, the half-inhibitory concentration (IC50) was 730 nM.

In the case of `Cn1cc(Br)c(-c2cccc(Nc3ccnc4cc(-c5nccs5)ccc34)c2)n1`, the IC50 came out at 980 nM.

For the compound `COc1ccc(CCNCC(O)c2cccc(Br)c2)c(Cl)c1OC` (stereo not given), the IC50 was determined as 1040 nM.

The compound `O=C(Nc1cccc(-c2cc(-c3c(Cl)cccc3Cl)no2)c1)c1cnc2ccccc2c1` displayed an IC50 of 1100 nM.

`CN1CCN(CCCNCc2ccccc2-c2cccc(CNCc3ccc4c(c3)OCO4)c2)CC1` yielded an IC50 of 790 nM.

As to `CCc1ccc(S(=O)(=O)Nc2ccc(CCN(C)C3CCN(C)CC3)cc2)cc1`, the half-inhibitory concentration (IC50) was found to be 1060 nM.

The compound `CCOC(=O)c1c(C)n(-c2ccccc2)c2ccc(O)cc12` came in with an IC50 of 470 nM.

`COc1ccc(-c2ccc(NC(=O)c3ccc(C#N)cc3)cc2)cc1CN1CCN(C)CC1` yielded an IC50 of 720 nM.

Regarding `CC(c1cccc(Nc2nccc(-c3c(-c4cccc(NC(=O)c5c(F)cccc5F)c4)nn4ccccc34)n2)c1)S(C)(=O)=O` (stereo not given), the IC50 is 60 nM.

Compound `O=C(CCCc1ccccc1)Nc1cccc(N2CCC(N3CCN(c4ccccc4O)CC3)CC2)c1` displayed an IC50 of 790 nM.

`Cc1sc(NC(=O)Cc2cccc(C(F)(F)F)c2)nc1-c1cccc(Cl)c1` came in with an IC50 of 470 nM.

On to `O=C(Cn1c(CCc2cccc(F)c2F)nc(=O)c2cccnc21)N(Cc1ccc(-c2ccc(C(F)(F)F)cc2)cc1)C1CCN(C2CCOCC2)CC1`, for which the IC50 came out at 830 nM.

In turn, `Cn1cnc(CCNC(=O)c2ccc(-c3cccc(-c4nc5ccc(F)cc5[nH]4)c3)cc2)c1` returned an IC50 of 680 nM.

`O=S(=O)(Nc1cccc(CCN2CCCCC2CCN2CCCC2)c1)c1cccc2ccccc12` (stereo not given) yielded an IC50 of 820 nM.

As to `CCN1CCC(N(Cc2ccc(-c3ccc(C(F)(F)F)cc3)cc2)C(=O)Cn2c(CCc3cccc(F)c3F)cc(=O)c3ccccc32)CC1`, the IC50 came out at 830 nM.

Consider `C/C=C/C=C/C1=NCCc2cc(OCCC)ccc21`, for which the IC50 was 910 nM.

In turn, `COc1cccc(N(CCCN2C(=O)c3cccc4cccc(c34)C2=O)C(=O)c2ccccc2C)c1` displayed an IC50 of 790 nM.

As to `O=C(c1ccccc1)N(Cc1ccccc1-c1ccc(CNCCc2ccccc2)cc1)C1CCN(Cc2ccccc2)CC1`, the IC50 worked out at 990 nM.

In the case of `CN1CCC(N2CCN(Cc3ccc(-c4ccc(-c5nc6ccc(F)cc6[nH]5)s4)cc3)CC2)CC1`, the IC50 was determined as 150 nM.

In the case of `Clc1ccc(-c2nc3ccc(-c4ccc5nc(-c6ccc(Cl)cc6)[nH]c5c4)cc3[nH]2)cc1`, the IC50 was found to be 240 nM.

`O=C(Cn1c(CCc2cccc(F)c2F)cc(=O)c2cccnc21)N(CCN1CCCC1)Cc1ccc(-c2ccc(C(F)(F)F)cc2)cc1`: the IC50 was determined as 890 nM.

`O=C(Nc1cccc(CN2CCCN(Cc3ccc(O)cc3)CC2)c1)c1ccc2ccccc2n1` yielded an IC50 of 940 nM.

In the case of `COc1cc(OC)nc(-c2cccc(NC(=O)c3ccc4c(=O)n(CCN5CCCCC5)cnc4c3)c2)n1`, the IC50 worked out at 740 nM.

Compound `COc1ccc(Nc2ncc3c(-c4cccc(NC(=O)Cc5ccc(F)cc5)c4)c[nH]c3n2)cc1OC` registered an IC50 of 590 nM.

As for `Cn1cc(C(=O)Nc2cccc(-c3cccc(-c4nc5ccc(F)cc5[nH]4)c3)c2)n(C)c1=O`, the IC50 was determined as 390 nM.

As to `CCN(CC)CCN(Cc1ccc(-c2ccc(C(F)(F)F)cc2)cc1)C(=O)Cn1c(CCc2cccc(C#N)c2)nc(=O)c2ccccc21`, the IC50 turned out to be 770 nM.

Consider `CC(C)(C)Oc1ccc(CC2NC3(C(=O)N(Cc4ccc(C(C)(C)C)cc4)c4ccccc43)C3C(=O)N(c4ccc(Br)cc4)C(=O)C23)cc1` (stereo not given), for which the IC50 came to 720 nM.

Regarding `CCN(CC)c1ccc2nc(N)nc(N)c2c1Cl`, the IC50 amounted to 30 nM.

Compound `COc1ccccc1CCNc1nc(C)cc(N[C@@H](CC(C)C)C(=O)NCc2cccs2)n1` showed an IC50 of 790 nM.

The compound `Cc1ccc(CN2CCCN(Cc3cccc(C(=O)Nc4ccc(C(C)(C)C)cc4)c3)CC2)s1` showed an IC50 of 1130 nM.

`Cc1ccc(-n2cc(CNCCc3ncc(C)[nH]3)c(-c3ccc(F)cc3)n2)cc1`: the IC50 was found to be 1510 nM.

On to `O=C(NCCN1CCC(c2ccncc2)CC1)c1cccc(Nc2nccc(Nc3ccc(Oc4ccccc4)cc3)n2)c1`, for which the half-inhibitory concentration (IC50) amounted to 170 nM.

For `CCOC(=O)c1cc(C(=O)NCCCCN2CCC(c3ccc(CC)cc3OCC)CC2)ccc1-c1ccc(C(F)(F)F)cc1`, the IC50 worked out at 610 nM.
